Laboratory results reported in the supplement of paper PMC3937590.

What was measured:
Experiment in all cases: -log10 GI50 (growth inhibition 50%) (-log10(M)); higher = more potent growth inhibition
MCF12A = system: MCF12A
Method in brief: (§1)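 Breast cancer cell lines were exposed to each compound for 72 hours at nine doses in 1:5 serial dilution, in triplicate, with a luminescence read-out against a time-zero plate. A Gompertz curve was fitted to the dose-response data by nonlinear least squares. The value is minus log10 of GI50, the molar concentration giving the set level of growth inhibition. Values equal to the top dose carry a < qualifier.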

BT483 = system: BT483
Method in brief: as §1

MDAMB361 = system: MDAMB361
Method in brief: as §1

SUM149PT = system: SUM149PT
Method in brief: as §1

HCC1187 = system: HCC1187
Method in brief: as §1

HCC70 = system: HCC70
Method in brief: as §1

LY2 = system: LY2
Method in brief: as §1

HCC1954 = system: HCC1954
Method in brief: as §1

184A1 = system: 184A1
Method in brief: as §1

HS578T = system: HS578T
Method in brief: as §1

MDAMB175VII = system: MDAMB175VII
Method in brief: as §1

HCC38 = system: HCC38
Method in brief: as §1

MDAMB415 = system: MDAMB415
Method in brief: as §1

MDAMB231 = system: MDAMB231
Method in brief: as §1

MCF10F = system: MCF10F
Method in brief: as §1

SUM229PE = system: SUM229PE
Method in brief: as §1

SUM159PT = system: SUM159PT
Method in brief: as §1

SKBR3 = system: SKBR3
Method in brief: as §1

UACC812 = system: UACC812
Method in brief: as §1

T47D = system: T47D
Method in brief: as §1

Row | SMILES | -log10 GI50 (MCF12A) | -log10 GI50 (BT483) | -log10 GI50 (MDAMB361) | -log10 GI50 (SUM149PT) | -log10 GI50 (HCC1187) | -log10 GI50 (HCC70) | -log10 GI50 (LY2) | -log10 GI50 (HCC1954) | -log10 GI50 (184A1) | -log10 GI50 (HS578T) | -log10 GI50 (MDAMB175VII) | -log10 GI50 (HCC38) | -log10 GI50 (MDAMB415) | -log10 GI50 (MDAMB231) | -log10 GI50 (MCF10F) | -log10 GI50 (SUM229PE) | -log10 GI50 (SUM159PT) | -log10 GI50 (SKBR3) | -log10 GI50 (UACC812) | -log10 GI50 (T47D)
1 | COc1cccc2c1C(=O)c1c(O)c3c(c(O)c1C2=O)C[C@@](O)(C(=O)CO)C[C@@H]3O[C@H]1C[C@H](N)[C@@H](O)[C@H](C)O1 [Epirubicin] | 7.26 | 6.78 | 6.65 | 6.66 | 6.33 | 6.35 | 6.86 | 6.7 | 6.68 | 6.44 | 7.05 | 7.07 | 6.58 | 6.57 | 6.32 | 6.62 | 6.86 |  |  | 
2 | NS(=O)(=O)c1ccc(Nc2nc(OCC3CCCCC3)c3[nH]cnc3n2)cc1 [NU6102] | 4.8 |  | 4.58 | 5.14 | 5.11 | 4.71 | 4.56 | 4.34 | 5.22 | 4.69 | 4.28 | 5.03 | 4.58 |  | 5 | 5.1 | 4.9 | 4.51 | 4.42 | 4.82
3 | CC(=O)NCC(=O)N1[C@@H]2CC[C@H]1c1ccc(Nc3ncc(C(F)(F)F)c(NC4CCC4)n3)cc12 | 5.59 |  | 5.23 | 6.08 | 7.1 | 5.38 | 5.5 | 5.16 | 5.66 | 6.05 | 5.63 | 6.2 | 5.18 | 5.53 | 6.28 | 6.1 | 6.37 | 5.38 |  | 5.14
4 | CC(C)[C@H](CO)Nc1nc(Nc2cccc(Cl)c2)c2ncn(C(C)C)c2n1 [Purvalanol A] | 4.15 | 4.4 | < 3.78 | 4.88 | 4.63 | < 3.78 |  | 4.11 | 4.62 | < 3.78 | 4.12 | < 3.78 | < 3.78 | < 3.78 | 4.74 | 4.91 | < 3.78 | 4.19 |  | < 3.78
5 | Cc1ccc(C(=O)N(CCCN)[C@@H](c2nc3cc(Cl)ccc3c(=O)n2Cc2ccccc2)C(C)C)cc1 [Ispinesib] | 7.25 | 6.08 | 7.46 | 7.48 | 7.58 | 7.34 | 6.06 | 7.52 | 5.84 | 6.51 | 5.84 | 7.33 | 7.05 | 7.5 | 7.57 | 7.48 | 7.33 | 7.49 |  | 7.08
6 | Nc1ccn([C@@H]2O[C@H](CO)[C@@H](O)C2(F)F)c(=O)n1 [Gemcitabine] | 7.17 |  |  | 7.84 | 5.07 | 4.58 | 7.62 | 4.51 | 6.16 | 5.66 | 8.12 | 8.17 | 6.05 | 5.93 | 7.08 | 7.3 | 7.99 | 7.97 | 7.75 | 6.02
